Measurements published in patent US20180325157A1, “A DIETARY SUPPLEMENT COMPRISING BETA-GLUCAN AND CASEIN HYDROLSATE FOR IMPROVING HEALTH AND GROWTH PERFORMANCE IN A MAMMAL” (University College Dublin, National University of Ireland, …, priority 2015, published 2018).
“And” between values parts separate entries of the source, which are not always exact repeats. Equal entries are not always repeated.

Tests used:
weaning piglet = conditions: previous experiments, cited from earlier work
IL-17 = assay: Cytokine gene expression in colonic tissue (qPCR): IL-17; assay type: in vivo, porcine; conditions: day 12, normalised relative quantity
Description: (§1) Tissue samples were collected from the mesenteric side of the colon, rinsed with ice-cold sterile phosphate-buffered saline (Oxoid, Basingstoke, UK) and stripped of overlying smooth muscle. The samples were then cut into small pieces using a sterile scalpel blade and stored in 15 ml of RNAlater™ (Applied biosystems, Foster city, CA, USA) overnight followed by storage at −20° C. prior to RNA extraction. Total RNA was extracted from the colonic tissue samples using a GenElute Mammalian Total RNA Miniprep Kit (Sigma-Aldrich Corporation, St Louis, Mo., USA) according to the manufacturer's instructions. […] The total RNA was quantified and assessed for purity using the NanoDrop-ND1000 Spectrophotometer (Thermo Fisher Scientific Inc. MA, USA). The quality of the total RNA was determined by visualizing on an ethidium bromide stained 1% agarose gel. […]
(§2) qPCR was carried out to quantify the following two sets of targets: the first set of target are a selected panel of cytokine genes; Interleukins (IL-1a, IL-1β, IL-4, IL-6, IL-8, IL-10, IL-17A, IL-21), Interferon (IFN-γ), Tumor Necrosis Factor (TNFα), Transforming growth factor (TGF-β) and Forkhead box P3 (FOXP3). […]
(§3) Mean Ct values were converted to relative quantities using the formula, Relative quantity=(PCR efficiency) ΔCt, where ΔCt is the change in the Ct values of the sample relative to the highest expression (minimum Ct value). […]

[1] = test system: selected panel of bacterial groups; assay: qPCR of the other selected bacterial groups in colonic digesta; assay type: in vivo, pig; conditions: day 12
Description: (§4) At day 12, all the pigs were sacrificed following a lethal injection of Euthatal (pentobarbitone sodium BP-Merial Animal Ltd, Sandringham House, Essex, UK) at a rate of […] live body weight. In sterile conditions, the digestive tract was removed and tissue samples from colon were placed in sterile phosphate buffer saline (PBS) (Oxoid, Basingstoke, UK). The digesta samples were recovered aseptically from caecum and colon and transported on ice to proper storage conditions.
(§5) To evaluate the effect of feed additives on the microbiota, samples of digesta contents (approximately 10 g) were recovered from the caecum and colon of each animal in sterile conditions immediately after slaughter. […] Quantity and quality of DNA were assessed using a Nanodrop (Nanodrop, ND1000; Thermo Scientific, Wilmington, Del.).
(§6) A combined aliquot of bacterial genomic DNA from all animals were used for preparation of standard curves. […] Thermal cycling conditions used were similar to the condition described below for quantitative real-time PCR. Standard curves were subsequently generated by quantitative real-time PCR of serial dilutions of these amplicons using the same genus and species-specific primers to permit absolute quantification based on gene copy number (Lee et al., 2006). […] The dry matter (DM) of the digesta was determined after drying overnight at 103° C. […]

TGF-β = assay: Cytokine gene expression in colonic tissue (qPCR): TGF-β; assay type: in vivo, porcine; conditions: day 12, normalised relative quantity
Description: as §1, §2, §3

IL-1α = assay: Cytokine gene expression in colonic tissue (qPCR): IL-1α; assay type: in vivo, porcine; conditions: day 12, normalised relative quantity
Description: as §1, §2, §3

IL-1β = assay: Cytokine gene expression in colonic tissue (qPCR): IL-1β; assay type: in vivo, porcine; conditions: day 12, normalised relative quantity
Description: as §1, §2, §3

Bifidobacteria spp. = assay: qPCR of bacterial groups in digesta: Bifidobacteria; assay type: in vivo, pig; conditions: day 12
Description: as §4, §5, §6

Bacteroidetes = assay: qPCR of bacterial groups in digesta: Bacteroidetes; assay type: in vivo, pig; conditions: caecal digesta, day 12
Description: as §4, §5, §6

weaning piglets = assay: Body weight and growth performance of weaned piglets over 12 days; assay type: in vivo, pig
Text: This study was designed in a completely randomized block design with 5 dietary groups. The dietary groups are as follows: 1) control diet, 2) control diet+ZnO, 3) control diet+casein hydrolysate, 4) control diet+(3 glucan and 5) control diet+casein hydrolysate+β glucan. The control diet used in this study was based on previous work by Walsh et al. (2013). The levels of casein hydrolysate used were based on previous experiment and the levels of β glucan, derived from yeast (S. cerevisiae), used were based on a previous study by Sweeney et al. (2012). Diets were formulated to contain similar concentrations of digestible energy (DE) (14.5 MJ/kg) and standardized ileal digestible (SID) lysine (12.5 g/kg) contents. All amino acids requirements were met relative to SID lysine (NRC, 1998). All diets were milled on site and fed in meal form for 12 days after weaning.
Forty weaned piglets [progeny of Landrace boars×(Large White×Landrace sow)] were weighed and blocked on the basis of initial live body weight (7.3±0.2 kg) and assigned to 1 of the 5 dietary treatment groups (n=8). Piglets were weighted individually at the beginning of the experiment (day 0=day of weaning), day 6 and day 12. The piglets were housed in groups of two on fully slatted floors (1.68×1.22 m). The ambient environmental temperature within the house was thermostatically controlled at 30° C. The feed was available ad libitum and water was available via nipple drinkers. Feed was available up to the final weighing and all remaining feed was weighed back for the purpose of calculating feed efficiency.
The current study was a complete randomised design experiment and data analysed using the general linear model procedure of the Statistical Analysis Institute (SAS, 2004). The individual pen represented the experimental unit for the performance analysis. All the data were checked initially for normality using the PROC univariate procedure in SAS (2004). The microbial counts were log transformed before statistical analysis. Probability values of less than 0.05 were used as the criterion for statistical significance. Intercorrelations between cytokines and cytokine regulatory genes was analysed in a correlation matrix using PASW 18 (SPSS for Windows, […]; SPSS, Chicago, Ill.) and the Pearson's r value greater than 0.400 was considered to be positively correlated. All results are presented in the tables as least square means±standard error of the means (SEM).

IL-8 = assay: Cytokine gene expression in colonic tissue (qPCR): IL-8; assay type: in vivo, porcine; conditions: day 12, normalised relative quantity
Description: as §1, §2, §3

[O]=[Zn] [ZnO, zinc oxide]
anti-inflammatory activity in the weaning piglet gut (weaning piglet; weaning piglet gut): anti-inflammatory activity
overall growth performance parameters (weaning piglet; weaning piglet): improved
IL-17 expression (IL-17): 0.061 RQ
bacterial copy numbers of any other bacterial group [1]: No change
TGF-β expression (TGF-β): 0.183 RQ
IL-1α expression (IL-1α): 0.006 RQ
IL-1β expression (IL-1β): 0.010 RQ
Bifidobacteria spp. numbers (Bifidobacteria spp.; caecal digesta): 8.94 log10 bacteria/g DM digesta
abundance of Bifidobacteria copy numbers (Bifidobacteria spp.; colonic digesta): 8.96 log10 bacteria/g DM digesta
abundance of Bacteroidetes copy numbers (Bacteroidetes): 12.60 log10 bacteria/g DM digesta
Gain to feed (Day 0-12) (weaning piglets; Day 0-12): 0.26 kg/kg
OADG (overall average daily gain) (Day 0-12) (weaning piglets; Day 0-12): 0.10 kg/day
OFI (overall feed intake) (Day 0-12) (weaning piglets; Day 0-12): 0.37 kg/day
Weight (kg) Weight 0-6 (weaning piglets; Weight 0-6): 7.53 kg
Weight (kg) Weight 6-12 (weaning piglets; Weight 6-12 (end of experiment)): 8.64 kg and 8.64^a kg
IL-8 expression (IL-8): 0.003 RQ
